Data from US9777020B2, “Furo-3-carboxamide derivatives and methods of use” (AbbVie Inc., priority 2014, dated 2017).

Target: TrkA (Homo sapiens (Human), UniProt P04629)
Assay: TrkA kinase HTRF enzyme inhibition assay
Format: biochemical
Settings: TrkA pre-incubated with 200 μM ATP
Procedure: TrkA enzyme was obtained from Invitrogen (as catalog numbers PV3144, PV3616, and PV3617, respectively). Enzyme activity was measured in an HTRF® (homogeneous time resolved fluorescence) assay, which detects enzymatic phosphorylation of a biotinylated synthetic peptide substrate (an LCK peptide analog, biotin-ahx-[…], from Genemed Synthesis). Phosphorylation is assessed by HTRF® in the presence of an anti-phosphotyrosine antibody conjugated to Eu^3+ cryptate (Cisbio) as donor fluorophore, and streptavidin conjugated to allophycocyanin (ProZyme) as acceptor fluorophore. The HTRF® signal was detected at two different wavelengths (620 nm and 665 nm) which were used to calculate the fluorescence ratio.
TrkA enzyme was titrated to a concentration optimized to ensure accurate measurement of the initial reaction rate. To allow the TrkA enzyme to undergo activation and auto-phosphorylation, a 20 minute pre-incubation with ATP was carried out (at twice the final targeted enzyme and ATP concentration) prior to addition of test compound and the peptide substrate.
TrkA in vitro assays were performed by pre-incubating TrkA (2-10 nM) with ATP (200 μM) for 20 minutes at ambient temperature in 50 mM HEPES pH 7.4, 10 mM MgCl2, 2 mM MnCl2, 100 μM Na3VO4, 1 mM dithiothreitol, 0.01% BSA (bovine serum albumin). Then, to the activated Trk enzyme mixture was added the test compound in 2% dimethyl sulfoxide. After 10 minutes, the peptide substrate (125 nM) was added. After 1 hour, enzyme reactions were terminated by addition of equal reaction volumes of detection/stop reagent (containing 0.2 μg/mL anti-phosphotyrosine monoclonal antibody labeled with europium from Cisbio (catalog#PT66-K), and 4 μg/mL PhycoLink® Streptavidin-Allophycocyanin conjugate from ProZyme (catalog#PJ25S) in 60 mM EDTA in 40 mM HEPES pH 7.4, 480 mM KF, 0.01% Tween® 20 and 0.1% BSA bovine serum albumin) Reaction plates were stored at 4° C. overnight before reading the fluorescence ratio signal on a PerkinElmer EnVision™ fluorescence detector. Individual reaction wells were stopped at time points to obtain reaction rates. The test inhibitor compounds were assayed in duplicate, at half-log serial dilutions over a range of concentrations (e.g. starting at 50 μM or 5 μM as the high compound concentration). The percent Trk enzyme inhibition was calculated from the initial rates of the inhibited reactions relative to the uninhibited control. IC50 values were calculated by fitting the inhibition percent to the concentration of inhibitor [I] in the assay in equation 1 below, to solve for the IC50. Inhibition %=100[I]/([I]+[IC50]) equation 1

Chain of TrkA (P04629 33-796): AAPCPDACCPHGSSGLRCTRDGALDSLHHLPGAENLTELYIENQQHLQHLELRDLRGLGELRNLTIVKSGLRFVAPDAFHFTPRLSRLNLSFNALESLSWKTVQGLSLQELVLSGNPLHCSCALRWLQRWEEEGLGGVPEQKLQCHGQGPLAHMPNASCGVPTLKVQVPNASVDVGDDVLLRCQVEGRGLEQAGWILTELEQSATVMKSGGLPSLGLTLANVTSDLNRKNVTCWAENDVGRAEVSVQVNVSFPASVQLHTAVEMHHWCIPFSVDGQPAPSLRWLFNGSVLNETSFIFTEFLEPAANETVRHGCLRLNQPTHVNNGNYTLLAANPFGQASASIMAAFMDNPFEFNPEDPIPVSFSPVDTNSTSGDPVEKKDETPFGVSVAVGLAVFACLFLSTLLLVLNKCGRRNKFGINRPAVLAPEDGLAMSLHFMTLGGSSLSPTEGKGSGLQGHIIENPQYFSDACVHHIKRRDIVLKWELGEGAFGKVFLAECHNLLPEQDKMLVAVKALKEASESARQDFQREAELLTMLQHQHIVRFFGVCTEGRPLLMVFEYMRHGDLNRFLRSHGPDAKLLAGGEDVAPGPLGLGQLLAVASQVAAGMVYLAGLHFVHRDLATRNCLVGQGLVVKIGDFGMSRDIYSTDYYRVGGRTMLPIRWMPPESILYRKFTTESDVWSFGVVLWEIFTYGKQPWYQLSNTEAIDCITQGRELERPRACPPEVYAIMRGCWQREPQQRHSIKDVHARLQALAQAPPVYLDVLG

IC50 [nM]	SMILES
430	N#Cc1ccc(NC(=O)c2coc3c2C(=O)NCC3)cc1 [Example 39, N-(4-cyanophenyl)-4-oxo-4,5,6,7-tetrahydrofuro[3,2-c]pyridine-3-carboxamide]
3240	O=C(Nc1ccc(F)cn1)c1coc2c1C(=O)NCC2 [Example 40, N-(5-fluoropyridin-2-yl)-4-oxo-4,5,6,7-tetrahydrofuro[3,2-c]pyridine-3-carboxamide]
1390	COc1ccc(NC(=O)c2coc3c2C(=O)NCC3)cn1 [Example 41, N-(6-methoxypyridin-3-yl)-4-oxo-4,5,6,7-tetrahydrofuro[3,2-c]pyridine-3-carboxamide]
918	O=C(Nc1ccc(Cl)cn1)c1coc2c1C(=O)NCC2 [Example 42, N-(5-chloropyridin-2-yl)-4-oxo-4,5,6,7-tetrahydrofuro[3,2-c]pyridine-3-carboxamide]
5640	N#Cc1cccc(NC(=O)c2coc3c2C(=O)NCC3)c1 [Example 43, N-(3-cyanophenyl)-4-oxo-4,5,6,7-tetrahydrofuro[3,2-c]pyridine-3-carboxamide]
4470	CCOc1ccc(NC(=O)c2coc3c2C(=O)NCC3)cn1 [Example 44, N-(6-ethoxypyridin-3-yl)-4-oxo-4,5,6,7-tetrahydrofuro[3,2-c]pyridine-3-carboxamide]
3480	Cc1n[nH]c2ccc(NC(=O)c3coc4c3C(=O)NCC4)cc12 [Example 45, N-(3-methyl-1H-indazol-5-yl)-4-oxo-4,5,6,7-tetrahydrofuro[3,2-c]pyridine-3-carboxamide]
855	Cc1cc2[nH]ncc2cc1NC(=O)c1coc2c1C(=O)NCC2 [Example 46, N-(6-methyl-1H-indazol-5-yl)-4-oxo-4,5,6,7-tetrahydrofuro[3,2-c]pyridine-3-carboxamide]
1220	O=C(Nc1nc2ccccc2s1)c1coc2c1C(=O)NCC2 [Example 47, N-(1,3-benzothiazol-2-yl)-4-oxo-4,5,6,7-tetrahydrofuro[3,2-c]pyridine-3-carboxamide]
506	COC(=O)c1n[nH]c2ccc(NC(=O)c3coc4c3C(=O)NCC4)cc12 [Example 48, methyl 5-{[(4-oxo-4,5,6,7-tetrahydrofuro[3,2-c]pyridin-3-yl)carbonyl]amino}-1H-indazole-3-carboxylate]
631	CCN(CC)c1ccc(NC(=O)c2coc3c2C(=O)NCC3)cc1 [Example 49, N-[4-(diethylamino)phenyl]-4-oxo-4,5,6,7-tetrahydrofuro[3,2-c]pyridine-3-carboxamide]
90.7	CC(O)Cn1ncc2cc(NC(=O)c3coc4c3C(=O)NCC4)ccc21 (stereo not shown) [Example 50, N-[1-(2-hydroxypropyl)-1H-indazol-5-yl]-4-oxo-4,5,6,7-tetrahydrofuro[3,2-c]pyridine-3-carboxamide]
18.9	CS(=O)(=O)NCCn1cc2cc(NC(=O)c3coc4c3C(=O)NCC4)ccc2n1 [Example 51, N-(2-{2-[(methylsulfonyl)amino]ethyl}-2H-indazol-5-yl)-4-oxo-4,5,6,7-tetrahydrofuro[3,2-c]pyridine-3-carboxamide]
18.4	CN1CCN(CCn2cc3cc(NC(=O)c4coc5c4C(=O)NCC5)ccc3n2)CC1 [Example 52, N-{2-[2-(4-methylpiperazin-1-yl)ethyl]-2H-indazol-5-yl}-4-oxo-4,5,6,7-tetrahydrofuro[3,2-c]pyridine-3-carboxamide]
67.5	O=C(Nc1ccc2c(cnn2CCO)c1)c1coc2c1C(=O)NCC2 [Example 53, N-[1-(2-hydroxyethyl)-1H-indazol-5-yl]-4-oxo-4,5,6,7-tetrahydrofuro[3,2-c]pyridine-3-carboxamide]
108	O=C(Nc1ccc2c(cnn2CCN2CCCC2)c1)c1coc2c1C(=O)NCC2 [Example 54, 4-oxo-N-{1-[2-(pyrrolidin-1-yl)ethyl]-1H-indazol-5-yl}-4,5,6,7-tetrahydrofuro[3,2-c]pyridine-3-carboxamide]
20.8	CC(O)Cn1cc2cc(NC(=O)c3coc4c3C(=O)NCC4)ccc2n1 (stereo not shown) [Example 55, N-[2-(2-hydroxypropyl)-2H-indazol-5-yl]-4-oxo-4,5,6,7-tetrahydrofuro[3,2-c]pyridine-3-carboxamide]

IC50 [nM]	SMILES
48.5	O=C(Nc1ccc2c(cnn2CCN2CCOCC2)c1)c1coc2c1C(=O)NCC2 [Example 56, N-{1-[2-(morpholin-4-yl)ethyl]-1H-indazol-5-yl}-4-oxo-4,5,6,7-tetrahydrofuro[3,2-c]pyridine-3-carboxamide]
34.6	CN1CCN(CCn2ncc3cc(NC(=O)c4coc5c4C(=O)NCC5)ccc32)CC1 [Example 57, N-{1-[2-(4-methylpiperazin-1-yl)ethyl]-1H-indazol-5-yl}-4-oxo-4,5,6,7-tetrahydrofuro[3,2-c]pyridine-3-carboxamide]
105	CS(=O)(=O)NCCn1ncc2cc(NC(=O)c3coc4c3C(=O)NCC4)ccc21 [Example 58, N-(1-{2-[(methylsulfonyl)amino]ethyl}-1H-indazol-5-yl)-4-oxo-4,5,6,7-tetrahydrofuro[3,2-c]pyridine-3-carboxamide]
984	CN1CCc2occ(C(=O)Nc3ccc(O)cc3)c2C1=O [Example 59, N-(4-hydroxyphenyl)-5-methyl-4-oxo-4,5,6,7-tetrahydrofuro[3,2-c]pyridine-3-carboxamide]
2110	CC(=O)Nc1ccc(NC(=O)c2coc3c2C(=O)N(C)CC3)cc1 [Example 60, N-(4-acetamidophenyl)-5-methyl-4-oxo-4,5,6,7-tetrahydrofuro[3,2-c]pyridine-3-carboxamide]
195	CN1CCc2occ(C(=O)Nc3ccc(N4CCCCC4)cc3)c2C1=O [Example 61, 5-methyl-4-oxo-N-[4-(piperidin-1-yl)phenyl]-4,5,6,7-tetrahydrofuro[3,2-c]pyridine-3-carboxamide]
827	CN1CCc2occ(C(=O)Nc3cnc4ccccc4c3)c2C1=O [Example 62, 5-methyl-4-oxo-N-(quinolin-3-yl)-4,5,6,7-tetrahydrofuro[3,2-c]pyridine-3-carboxamide]
319	CN1CCc2occ(C(=O)Nc3ccc4ncccc4c3)c2C1=O [Example 63, 5-methyl-4-oxo-N-(quinolin-6-yl)-4,5,6,7-tetrahydrofuro[3,2-c]pyridine-3-carboxamide]
134	CN1CCc2occ(C(=O)Nc3ccc4cn[nH]c4c3)c2C1=O [Example 64, N-(1H-indazol-6-yl)-5-methyl-4-oxo-4,5,6,7-tetrahydrofuro[3,2-c]pyridine-3-carboxamide]
146	COc1ccc(NC(=O)c2coc3c2C(=O)N(C)CC3)c(OC)n1 [Example 65, N-(2,6-dimethoxypyridin-3-yl)-5-methyl-4-oxo-4,5,6,7-tetrahydrofuro[3,2-c]pyridine-3-carboxamide]
5080	Cc1cc(NC(=O)c2coc3c2C(=O)N(C)CC3)no1 [Example 66, 5-methyl-N-(5-methyl-1,2-oxazol-3-yl)-4-oxo-4,5,6,7-tetrahydrofuro[3,2-c]pyridine-3-carboxamide]
1080	CN1CCc2occ(C(=O)Nc3ccc(C#N)cc3)c2C1=O [Example 67, N-(4-cyanophenyl)-5-methyl-4-oxo-4,5,6,7-tetrahydrofuro[3,2-c]pyridine-3-carboxamide]
5820	CN1CCc2occ(C(=O)Nc3ccc(F)cn3)c2C1=O [Example 68, N-(5-fluoropyridin-2-yl)-5-methyl-4-oxo-4,5,6,7-tetrahydrofuro[3,2-c]pyridine-3-carboxamide]
4340	COc1ccc(NC(=O)c2coc3c2C(=O)N(C)CC3)cn1 [Example 69, N-(6-methoxypyridin-3-yl)-5-methyl-4-oxo-4,5,6,7-tetrahydrofuro[3,2-c]pyridine-3-carboxamide]
2490	CN1CCc2occ(C(=O)Nc3ccc(Cl)cn3)c2C1=O [Example 70, N-(5-chloropyridin-2-yl)-5-methyl-4-oxo-4,5,6,7-tetrahydrofuro[3,2-c]pyridine-3-carboxamide]
3670	CN1CCc2occ(C(=O)Nc3cccc(C#N)c3)c2C1=O [Example 71, N-(3-cyanophenyl)-5-methyl-4-oxo-4,5,6,7-tetrahydrofuro[3,2-c]pyridine-3-carboxamide]
2480	CCOc1ccc(NC(=O)c2coc3c2C(=O)N(C)CC3)cn1 [Example 72, N-(6-ethoxypyridin-3-yl)-5-methyl-4-oxo-4,5,6,7-tetrahydrofuro[3,2-c]pyridine-3-carboxamide]
